In one data set the test system is periorbital skin. As to the kind of experiment: Irritancy near the eyes, ointment applied to periorbital skin. Particulars: Table 1 summary. It counts as in vivo, human. From the text:
The ointment is also applied to the periorbital skin (upper and lower eyelids and on skin adjacent to the lateral canthus) for tests of irritancy near the eyes, and the subject is asked if irritation is present or absent. The intensity of the eye sensation is not rated. For tests of irritancy near the eyes, the ointment was applied to the periorbital skin (upper and lower eyelids and on skin adjacent to the lateral canthus), and the subject asked if irritation is present or absent. The intensity of the eye sensation is not rated, but just noted as being present or absent.

The next data set deals with tongue. Particulars: Watson et al., filter paper on tongue, 6 subjects; cited from earlier work.
Another data set has as its system oral cavity. As to the kind of experiment: Oral cavity test, substance placed on dorsal surface of the tongue. It counts as in vivo, human. The protocol:
The subject is instructed to close and hold the substance in the mouth for at least 10 seconds and not to swallow. The description of sensations is then recorded at 5 minute intervals.
The compounds of Formula (1) and (2) are white crystalline solids at room temperatures. These compounds were tested as such, or mixed 1:1 with powdered or granulated sugar. The test substances were applied at 1 to 5 mg on the mid-point of the dorsal surface of the tongue using a metal spatula or a plastic applicator. After depositing the test substance on the tongue, the subject was instructed to keep the mouth closed and allow the fluids of the mouth to inter-mix with the test substance and to distribute it to the back of the mouth (oropharynx). The presence and duration of subjective sensations from the mouth was then noted.
In normal subjects, the effects of the D-Ala methyl and ethyl ester compounds falling within Formula (1) ((R)-2-[((1R,2S,5R)-2-isopropyl-5-methyl-cyclohexanecarbonyl)-amino]-propionic acid methyl or ethyl ester)) were examined. Three doses of 1, 2 and 4 mg per application were examined and compared to a similar dose of the L-Ala methyl or ester analog ((S)-2-[((1R,2S,5R)-2-isopropyl-5-methyl-cyclohexanecarbonyl)-amino]-propionic acid methyl or ethyl ester). At the 2 or 4 mg dose, all compounds produced pleasant and robust cooling sensations on the tongue, extending down to the back of throat, and lasted for about 30 minutes and longer. The onset effect was usually within 30 seconds of application.

Another data set relates to skin above the upper lip. Nature of the data set: Cooling sensation on facial skin, ointment applied to skin above the upper lip. Format: in vivo, human. Further details: key to refreshing cooling and absence of skin irritation or eye irritation (“perfect cool”): (*) denotes compounds with refreshing cooling and absence of skin irritation or eye irritation after facial skin or periorbital applications; a “perfect cool.”. Particulars: for Duration of Skin Cooling: 40 mM (1% wt/vol) ointment.

For another data set, the system named is cough. As to the kind of experiment: Study 8: cough in cigar smokers, powder on the tongue. It counts as in vivo, human. From the text:
Two males, were inveterate cigar smokers consuming 3 to 5 cigars per day. They both had frequent bouts of dry, non-productive, hacking coughs. At night, there were episodes of insomnia characterized by difficulties in breathing, an oppressive pressure on the chest and throat, and subsequent awakening with sensations of choking. During the day, a frequent and persistent sensation was that of tickling, irritative feelings in the back of the throat that led to coughing.
In 20 trials, 10 trials per subject, two mg of 95%+pure powder of a D-Ala ethyl compound falling within Formula (1) (R)-2-[((1R,2S,5R)-2-isopropyl-5-methyl-cyclohexanecarbonyl)-amino]-propionic acid ethyl ester) was placed on the mid-portion of the tongue of these two subjects. Both subjects reported relief from the desire to cough within 1 minute after application. Sensations of robust coolness in the back of the throat was noted and lasted for about 30 minutes. Applications of similar amounts of powdered sugar were not effective, but the placebo could be clearly distinguished from the active compound because of the absence of cooling sensations.
After application of test substance, the absence of irritation and itching at the back of the throat (cough signals) lasted for about 4 to 5 hours and the individual was observed not to cough for 6 to 8 hours. […] This therapeutic effect occurred when the test substance no longer elicited cooling sensations in the oropharynx.

The test system of another data set is asthma cough. Nature of the data set: Study 9: asthmatic cough, powder on the tongue. To be noted: continued use. It counts as in vivo, human. From the text:
A person with a documented 31-year history of asthma attacks volunteered to test one of the compounds falling within Formula (1). They were extremely sensitive to agents such as tobacco smoke, dust, pollen, odors, down/woolen materials, house cleansing products, pets, and sudden change of air temperature, and reacted with violent coughing, mucus secretions, wheezing, choking, and shortness of breath. At the time of this trial, they were taking these medications for their condition: theophylline, Allegra®, Advair®, Intal®, and Singulair®. In 5 trials, during a coughing spree, they placed one to two mg of 95%+ pure powder of a D-Ala ethyl ester falling within Formula (1) ((R)-2-[((1R,2S,5R)-2-isopropyl-5-methyl-cyclohexanecarbonyl)-amino]-propionic acid ethyl ester)) on the mid-portion of their tongue. They reported a soothing and cool sensation with a slight taste similar to Eucalyptus oil in their mouth and throat. Coughing stopped after 3 to 5 minutes and breathing was normal. […] In three trials when the compound was applied at night, they slept through the night without being awakened by cough. Their spouse remarked that, in over 30 years of marriage, this was the first time that they had seen an effective medication for their cough. […]

A value given as a limit tells only on which side of the number the result lay.

For the compound `CC(C)[C@@H]1CC[C@@H](C)C[C@H]1O` [(−)-menthol, 1R-(1α-2β-5α)-5-methyl-2-(1-methylethyl)cyclohexanol, reference compound], the “Eye Irritancy” value with periorbital skin is “yes”. In the data set on tongue, the “average threshold for cooling on the tongue” value was 0.25 µg. Moreover, the Cooling on tongue entry in the data set with oral cavity (Table 1 summary) was “yes”. Moreover, the “Duration of Skin Cooling” value in the data set on skin above the upper lip (skin above upper lip) worked out at 0.3 h. Besides, in the data set on skin above the upper lip (Table 1 summary), the “Acts for >1 hour at 40 mM” value was “no”, the “Cooling on skin of face” value is listed as “yes” and the ““perfect” cooling experience” value is recorded as “no”.

As to `CCOC(=O)[C@@H](C)NC(=O)[C@@H]1C[C@H](C)CC[C@H]1C(C)C` [D-Ala Et Ester, (R)-2-[((1R,2S,5R)-2-isopropyl-5-methyl-cyclohexanecarbonyl)-amino]-propionic acid ethyl ester], the “time the desire to cough was removed” value in the data set with cough (after 4 or 6 applications within 2 days, continued smoking) was “at least 5 days”. Also, the “duration of robust coolness in the back of the throat” value in the data set on cough (two mg powder on tongue) is “about 30 minutes”. The “time to relief from the desire to cough” value in the data set on cough (two mg powder on tongue, 20 trials in 2 subjects) was at most 1 min. Moreover, the “duration of cooling sensations on the tongue” value in the data set on oral cavity (dose of 1 to 2 mg, normal subjects) is given as “about 30 minutes”. The “recurrence of asthmatic coughing attacks” value with asthma cough is given as “have not recurred with any severity for one month”. The “Duration of Skin Cooling” value with skin above the upper lip (skin above upper lip) amounted to 2.4 h. For the same compound, the “Duration of Action On-Off (minutes): On (onset)” value in the data set with skin above the upper lip (40 mM (~1% wt/vol) Aquaphor ointment, 40 to 70 mg, skin above upper lip, time to reach 2 units of coolness) is 1 min. In addition, the “Duration of Action On-Off (minutes): duration (offset minus onset)” value in the data set with skin above the upper lip (40 mM Aquaphor ointment, skin above upper lip) was determined as 142 min. Further, the “Duration of Action On-Off (minutes): Off (offset)” value with skin above the upper lip (40 mM Aquaphor ointment, skin above upper lip, time when coolness drops below 2 units) was determined as 143 min. Moreover, in the data set with skin above the upper lip (after facial skin or periorbital applications), the “refreshing cooling and absence of skin irritation or eye irritation (“perfect cool”)” value was “D-Ala Et Ester (*)”.

Source of the values: US20110160303A1, “N-ALKYLCARBONYL-AMINO ACID ESTER AND N-ALKYLCARBONYL-AMINO LACTONE COMPOUNDS AND THEIR USE” (Edward Tak WEI, priority 2005, published 2011).
